Paper PMC3621900 (Nature Communications, 2013)

Tested on: nicotinic acetylcholine receptor (nAChR)
Experiment: whole-cell patch clamp
Set-up: species or system Apis mellifera

SMILES: O=[N+]([O-])NC1=NCCN1Cc1ccc(Cl)nc1 [imidacloprid]
- IC50: 295 nM
